Where “and” joins values, the source holds several entries; their conditions need not be identical. Identical values can stand only once.
Legend:
C2C12 cells = test: Differentiation and muscle protein expression of C2C12 myoblasts exposed to deacetylase inhibitors (MHC immunofluorescence, Western blot, RT-PCR, FACS); format: cell-based, mouse; conditions: for Nuclei/MHC-Positive Cells (number of nuclei) / percentage of nuclei detected in MHC-positive cells: C2C12, DI 24 hours in GM, then DM without DI, Tr. 1 and Tr. 2; for MHC expression and frequency of MHC-positive multinucleated cells: undifferentiated myoblasts exposed in GM, differentiated in the absence of DI, vs untreated cells
Protocol: Mouse muscle myoblast C2C12 cells (obtained from the American Type Culture Collection, ATCC CRL-1772) and CC42 cells (from Dr. Kenneth Walsh, Tufts University School of Medicine) were cultured in DMEM supplemented with 20% fetal bovine serum, 2 mM glutamine and 1× kanamycin (growth medium, GM). Cellular differentiation was induced with DMEM supplemented with 2% horse serum and 1× insulin, transferring, selenium (Life Technologies). Human skeletal myocytes (CC-2561) were purchased from Clonetics. Stable C2C12 cell lines with integrated reporters are described in Wu, Z., et al., Mol Cell Biol 20:3951-64 (2000). The MCK-luc, 4RE-luc, MEF2 reporter constructs have been described in Puri, P. L., et al., EMBO Journal 16:369-83 (1997a) and Sartorelli, V., et al., Molecular & Cellular Biology 17:1010-26 (1997). The E2F-luc plasmid is described in Helin, K., et al., Genes Dev 7:1850-61 (1993). The MLC-lacZ-nls plasmid is described in Wu, et al. (2000). Dr. Stuart Schreiber (Harvard University) provided the vector expressing Flag-HDAC1, which is described in Taunton, J., et al., Science 272: 408-11 (1996). Transient transfections were performed using FuGENE 6 transfection reagent (Roche Molecular Biochemicals). Following transfections, luciferase activity was determined using the Dual-Luciferase reporter assay system (Promega) on a microtiter luminescence detection system (MLX, Dynex).
For immunoblotting, cell extracts were obtained after incubating the cells in standard lysis buffer. Western blots were probed with the following antibodies: anti-MHC (MF-20), anti-myogenin (FD5), and anti-tubulin (E7), obtained from the Developmental Studies Hybridoma Bank, University of Iowa. Primary antibodies were visualized with the ECL cheminoluminescent kit (Amersham). Cells were fixed and stained with anti-MHC MF-20 antibodies. Nuclei were visualized by 4′,6′-[…]-2-phenylindole (DAPI). FITC-conjugated or Texas red-conjugated secondary antibodies were employed to reveal the primary antibodies.
C2C12 and CC42 cells were exposed to sodium butyrate 5 mM (Sigma), trichostatin A 50 nM (Upstate Biotechnologies), or valproic acid 10 mM (Sigma) for 24 hours in GM (GM regimen). TSA was removed and the cells cultured in DM for 48 hrs before being analyzed. When indicated (DM regimen), the cells were exposed to deacetylase inhibitors when switched from GM to DM and cultured in their presence for 48 hrs.
Another striking effect induced by DI is their ability to increase the number of nuclei present in MHC positive cells. While approximately 15% of the total nuclei are present in elongated, MHC-positive myotubes not exposed to DI, approximately 75-80% of the total nuclei are detected in hypernucleated MHC-positive myotubes when these have been previously exposed to DI (see FIG. 1D and Table 1). In Table 1, C2C12 cells were either exposed to sodium butyrate, TSA, VPA or left untreated for 24 hours in GM. The medium was replaced with DM without DI, and MHC expression was detected by immunofluorescent staining. Nuclei were visualized with DAPI. The values in parenthesis indicate the percentage of nuclei detected in MHC-positive cells. The values are derived from two independent trials.

MLC3F-lacZ-nls construct = test: β-Galactosidase assay of cells transfected with MLC3F-lacZ-nls; format: cell-based, mouse; conditions: transfected cells exposed in GM, then DM 48 hours; vs non-treated cells
Protocol: FIGS. 4A-C illustrate that embryos exposed to DI display enhanced somitogenesis and increased muscle gene expression. […] Cells were then exposed to TSA (50 nM) in GM and subsequently switched to DM for 48 hours. Cells were stained to detect β-galactosidase activity. FIG. 4B is a picture of E 10.5 embryos derived from MLC1/3F-nLacZ transgenic mice exposed to either TSA or VPA treatment (see Example 1) and stained for 1 hour at 30° C. to detect β-galactosidase activity. […] FIG. 4C is a Western blot of extracts derived from total embryos exposed to either TSA or VPA; MHC is detected.
Cells transfected with MLC-lacZ-nls were washed twice in PBS, fixed in 4% paraformaldeheyde-PBS for 5 min, washed twice in PBS, and stained for 2-5 hrs with 5 mM potassium ferrycyanide, 5 mM potassium ferrocyanide, 2 mM MgCl2, 1 mg/ml X-gal (5-bromo-4-chloro-3-indolyl-β-D-galactoside).

mouse embryos = test: Embryos of pregnant MLC1/3F-nLacZ mice exposed in utero (somitogenesis, muscle gene expression); format: in vivo
Protocol: MLC1/3F-nLacZ pregnant mice (E 8.5) received intra peritoneal injection of 15 μg of TSA (WAKO chemicals, Neuss Germany) or VPA (Sigma) at E 8.5 and E 9.5 as described in Faiella, A., et al., Hum Mol Genet 9:227-36 (2000), and Nervi, C., et al., Cancer Res 61:1247-9 (2001). VPA was dissolved in distilled water and administered at doses of 6 mg/mice (about 150 μg/ml) every 12 h at E 8.5, E 9, E 9.5, E 10 as described in Faiella et al. (2000). […] Mice were sacrificed at E 10.5, and the embryos were observed under a dissecting stereo-microscope to evaluate their viability, presence of external malformations, and number of somites. Embryos were fixed in 4% paraformaldehyde for histology and X-Gal staining or immunocytochemistry using antibodies against MyoD and myosin heavy chains as described in Tajbakhsh, S., et al., Neuron 13:813-21 (1994).
DI was administered intraperitoneally to pregnant mice (at a concentration of 0.5 to 1 mg/Kg for TSA and 200 mg/Kg for VPA) at post-implantation stages of E 8.5, and the pregnant mice were sacrificed at 10.5, when MyoD expression is clearly detectable in the myotomes. […] In Table 2, Somites of MLC1/3F-nLacZ mice (injected at day 8.5 and sacrificed at day 10.5) were scored after staining the embryos to detect β-galactosidase activity.

[1] = i.p. to pregnant mice at E 8.5, sacrificed at 10.5, 0.5 to 1 mg/Kg TSA, 200 mg/Kg VPA

| SMILES | Nuclei/MHC-Positive Cells (number of nuclei) (C2C12 cells) | percentage of nuclei detected in MHC-positive cells (C2C12 cells) | MHC expression and frequency of MHC-positive multinucleated cells (C2C12 cells) | β-galactosidase-positive nuclei (MLC3F-lacZ-nls construct) | level of MLC-lacZ transgene expression (mouse embryos; E 10.5 embryos, vs control embryos) | # somites (β-galactosidase staining) (mouse embryos; MLC1/3F-nLacZ mice injected at day 8.5, sacrificed at day 10.5, TSA [1 mg/ml] (20 ul + 380 ul PBS), VPA 155 mM, one value per embryo, PBS controls 25-32) | levels of MHC in exposed embryos (Western blot) (mouse embryos; extracts of total embryos) | number of MLC expressing somites (mouse embryos; [1]) | number of MyoD expressing myotomes (mouse embryos; [1]) | expression of myogenin and MHC, differentiation (C2C12 cells; C2C12 treated when cultured in DM, 48 hours) | apoptosis (reduced cell density) (C2C12 cells; cells exposed in DM) |
| --- | --- | --- | --- | --- | --- | --- | --- | --- | --- | --- | --- |
| CCCC(CCC)C(=O)O [VPA, valproic acid] | 153 and 187 | 81% and 78% | effects undistinguishable from those exerted by sodium butyrate | increased β-galactosidase-positive nuclei | higher level of MLC-lacZ transgene expression | 35 and 36 and 33 and 34 | augmented the levels of MHC | consistently increased | consistently increased | – | – |
| CCCC(=O)[O-].[Na+] [Sodium Butyrate, sodium butyrate] | 230 and 210 | 83% and 84% | upregulated MHC expression and displayed a striking increased frequency of larger MHC-positive multinucleated cells | – | – | – | – | – | – | failed to activate expression of both myogenin and the myosin heavy chain (MHC) and to properly differentiate | high frequency of apoptosis |

Source: patent US7795208B2, “Methods of using deacetylase inhibitors to promote cell differentiation and regeneration” (The Salk Institute for Biological Study, priority 2001, dated 2010)
